Key:
MDA-MB-231 = assay: Cleaved caspase-3 immunofluorescence in breast cancer cells; format: cell-based, human; details: p53-mutant cell line, 10 μM, 3 days
Description: (§1) Human fetal lung fibroblasts (IMR-90) were cultured in Dulbecco's modified eagle medium (DMEM) supplemented with 10% FBS and penicillin/streptomycin. LL 29 (AnHa) cells were obtained from the ATCC and growth to confluence using the ATCC protocol, but were subcultured as described for IMR-90 before initiation of all experiments. Quiescence was induced by replacing culture media with media containing 0.2% FBS. MCF-7 and MDA-MB-231 breast cancer cells were cultured in RPMI supplemented with 10% FBS and penicillin/streptomycin. All cells were cultured at 3% O2, and used between 25 and 40 population doublings. All cells were mycoplasma free.
(§2) For EdU labeling, cells were cultured with EdU (10 μM) for 24 h, fixed in 4% buffered formalin for 10 min, washed in PBS, and permeabilized in 0.5% Triton X-100 for 30 min. Cells were treated as instructed by the manufacturer Life Technologies Cat #C10337). For immunofluorescence, cells were blocked in 10% normal goat serum for 30 min, washed, and incubated overnight in antibodies to Ki67 (Abcam) or cleaved caspase 3 (Cell Signaling). Cell were then washed, incubated in fluorescent secondary antibodies, and mounted using vectashield mounting medium with DAPI.

MCF7 = assay: as above; format: cell-based, human; details: p53-positive cell line, 10 μM, 3 days
Description: as §1, §2

Compound: CCCCC/C=C/C=C1/C(=O)C=C[C@@H]1C/C=C\CCCC(=O)O [15d-PGJ2]
- apoptosis (cleaved caspase-3) (MDA-MB-231): induced apoptosis
- apoptosis (cleaved caspase-3) (MCF7): did not

— patent US20200371122A1, “BIOMARKER FOR SENESCENT CELLS” (Buck Institute for Research on Aging, priority 2017, published 2020)
